Results from US8389571B2, “Benzofuran derived HIV protease inhibitors” (Sequoia Pharmaceuticals, Inc., priority 2007, dated 2013).

Tests used:
HIV protease (wt) = biological target: T1, HIV protease (wt) (Human immunodeficiency virus type 1 group M subtype B, UniProt P04585); experiment: HIV protease inhibitory activity, wild type; assay type: biochemical
T1 construct: over 45 of the 99 amino acids of the HIV protease monomer

HIV protease Mutant 9 = HIV protease Mutant 9 (Human immunodeficiency virus type 1, UniProt P04585); experiment: HIV protease inhibitory activity, Mutant 9; assay type: biochemical; settings: Mutant 9 protease
HIV protease Mutant 8 = HIV protease Mutant 8 (Human immunodeficiency virus type 1, UniProt P04585); experiment: HIV protease inhibitory activity, Mutant 8; assay type: biochemical; settings: Mutant 8 protease
HIV-1 WT = experiment: Antiviral activity, in vitro drug sensitivity of HIV-1 isolates, WT; assay type: cell-based; settings: Human immunodeficiency virus 1
Method: (§1) In Vitro Drug Sensitivity of HIV-1 Laboratory Isolates to PIs
(§2) The sensitivities of HIV-1 isolates against compounds of the invention were determined as previously described with minor modifications (Shiraska et al., Proc. Natl. Acad. Sci. USA, 92, 2398-2402 (1995)).

HIV-1 Mutant 9 = experiment: Antiviral activity, in vitro drug sensitivity of HIV-1 isolates, Mutant 9; assay type: cell-based; settings: Human immunodeficiency virus 1, read-out: Antiviral activity IC50 Mutant 9
Method: as §1, §2

HIV-1 Mutant 8 = experiment: Antiviral activity, in vitro drug sensitivity of HIV-1 isolates, Mutant 8; assay type: cell-based; settings: Human immunodeficiency virus 1, read-out: Antiviral activity IC50 Mutant 8
Method: as §1, §2

[1] = In vivo bioavailability, rat; settings: 20 mg/kg p.o.
[2] = rat, oral administration; Miller et al., Bioorg Med Chem Lett. 1788-94 (2006); cited from earlier work

Structure (SMILES) | Ki (HIV protease (wt)) | Ki (HIV protease Mutant 9) | Ki (HIV protease Mutant 8) | IC50 (HIV-1 WT) | IC50 (HIV-1 Mutant 9) | IC50 (HIV-1 Mutant 8) | AUC (0-12) [1] | Cmax ([1]; in vivo, po) | Tmax ([1]; in vivo, po) | bioavailability ([1]; in vivo, po) | % F [2]
Cc1nc(COc2ccc(C[C@H](NC(=O)O[C@H]3CO[C@H]4OCC[C@H]43)[C@H](O)CN(CC(C)C)S(=O)(=O)c3ccc4occc4c3)cc2)cs1 [Compound D] | < 0.05 nM | 0.055 nM | < 0.05 nM | 1.4 nM | 32 nM | 4.2 nM | 11 ugxh/mL | 3.51 µM | 39.6 min | 92% | 
Cc1nc(COc2ccc(C[C@H](NC(=O)O[C@H]3CO[C@H]4OCC[C@H]43)[C@H](O)CN(CC(C)C)S(=O)(=O)c3ccc4c(c3)OCO4)cc2)cs1 [GW0385, reference compound] | 0.1 nM | 0.13 nM | < 0.05 nM | 0.8 nM | 42 nM | 3.2 nM |  |  |  |  | 10%
